Experimental data published in US8350033B2, “4-((3, 5, 6-trimethylpyrazine-2-yl) methoxyl) benzoic acid and its derivatives” (priority 2007, dated 2013).

Columns and labels:
aggregation of platelet = assay: Experiment of resisting platelet aggregation (ADP-induced, platelet-rich plasma, absorbance at 600 nm); assay type: cell-based, rabbit; details: for IC50: Oryctolagus cuniculus, rabbit platelet-rich plasma, ADP final concentration of 4 μmol/L, read-out: IC50 (50% inhibitory concentration) on aggregation of platelet
Description: Experiment of resisting platelet aggregation with the ligustrazine aromatic acid ether derivatives: Anaesthetizing intravenously a rabbit with 3% pentobarbital sodium, separating arteria carotis communis and taking blood by inserting a pipe, using 3.8% sodium citrate solution (dissolving 3.8 g sodium citrate with distilled water, up to 100 mL, filtering, bottling, sterilizing under 121° C. and high pressure for 15 min) as an anticoagulant (1:9), 1000 r/min, centrifuging for 5 min to prepare platelet-rich plasma (PRP), 3000 r/min, centrifuging for 15 min to prepare platelet-poor plasma (PPP). Cultivating the PRP under 37° C. in a silicified cuvette for 5 min, measuring absorbance (A) at 600 nm, adjusting the absorbance of the PRP to 0.6-0.7 with the PPP, adding 1.7 mL adjusted PRP into another silicified cuvette, adding 200 μL of the test drug, measuring the absorbance at 600 nm before adding […], then adding 100 μL of ADP (final concentration of 4 μmol/L), respectively measuring the absorbance when 2 and 5 min after adding the ADP, calculating aggregation rate (AR) by the following formula: AR=(A before adding the ADP−A after adding the ADP)/A before adding the ADP (100%.). At the same time, calculating aggregation inhibition rate (AIR) of the tested drug to platelet: AIR=[1−(aggregation percentage in administrated tube/aggregation percentage in contrast tube)]×100. Calculating 50% inhibitory concentration (IC50) of the tested drug, referring to table 2.

Compound	melting point	IC50 (aggregation of platelet) [µM]	antiplatelet aggregative activity compared with Ozagrel positive drug (in words) (aggregation of platelet; rabbit PRP, ADP)	antiplatelet aggregative activity relative to Ozagrel (aggregation of platelet; ratio to Ozagrel positive drug, rabbit PRP, ADP) [times]
COc1cc(C(=O)O)cc(OC)c1OCc1nc(C)c(C)nc1C [Example 2, 4-((3,5,6-trimethylpyrazine-2-yl)methoxyl)-3,5-dimethoxybenzoic acid]	> 218 °C (dec.)	–	–	–
COc1cc(C(=O)O)ccc1OCc1nc(C)c(C)nc1C [Example 5, 4-((3,5,6-trimethylpyrazine-2-yl)methoxyl)-3-methoxybenzoic acid]	183 to 185 °C	–	–	–
Cc1nc(C)c(COc2ccc(C(=O)O)cc2)nc1C [MC1, 4-((3,5,6-trimethylpyrazine-2-yl)methoxyl)benzoic acid]	179 to 181 °C	1360	stronger than Ozagrel	–
COc1cc(/C=C/C(=O)O)ccc1OCc1nc(C)c(C)nc1C [MC2, (E)-3-(4-((3,5,6-Trimethylpyrazin-2-yl)methoxy)-3-methoxyphenyl)acrylic acid]	156 to 158 °C	280	stronger than Ozagrel	5.7
COc1ccc(C(=O)O)cc1OCc1nc(C)c(C)nc1C [MC5, 3-((3,5,6-trimethylpyrazine-2-yl)methoxyl)-4-methoxybenzoic acid]	190 to 192 °C	1000	stronger than Ozagrel	–
O=C(O)/C=C/c1ccc(Cn2ccnc2)cc1 [Ozagrel, reference compound]	–	1600	–	–
